According to US20080221074A1, “Drug Screen and Treatment Method” (priority 2006, published 2008):
Where two headings read alike, the source gives them in different places.

Columns and labels:
[1] = tested on: popliteal lymph node cells; assay: reporter antigen popliteal lymph node (PLN) assay; assay type: in vivo, BALB/C mice; details: compound 1.0 and 0.1 mg/day; dexamethasone 5 μg/day
Source text: Analysis of immune suppression. Glucocorticoid steroids such as dexamethasone or hydrocortisone are typically immune suppressive and have significant toxicities associated with their use. Immune suppression was examined in a reporter antigen popliteal lymph node assay in mice essentially as previously described (C. Goebel et al., Inflamm. Res., 45(Suppl. 2):S85-S90, 1996; R. Pieters et al., Environmental Health Perspectives 107(Suppl. 5):673-677, 1999). […] In this protocol, the vehicle was 0.1% carboxymethylcellulose, 0.9% saline, 2% tween 80 and 0.05% phenol, which contained 17α-ethynylandrost-5-ene-3β,7β,17β-triol in suspension in drug treated animals. Assessment of activity included (1) measuring suppression of numbers of total lymphocytes, antigen specific IgM, IgG1 and IgG2a antibody secreting cells (ASC) (ELISPOT assay) in popliteal lymph node cells; (2) analysis of cell surface marker (CD4, CD8, CD19, F480, CD80, CD86) expression by flow cytometry of living cells in suspension; and (3) IL-4, TNFα and IFNγ production by lymphocytes in vitro (ELISA).
Groups (n=5 per group) of specific pathogen free BALB/C mice were used. The Positive control group was treated with vehicle (oral gavage) and 5 μg/day dexamethasone by subcutaneous injection to induce immune suppression. Vehicle control animals (negative control) were treated with vehicle alone (oral gavage). One group of animals was treated with 17α-ethynylandrost-5-ene-3β,7β,17β-triol at 0.1 mg/day by oral gavage. Another group was treated with 1 mg/day of 17α-ethynylandrost-5-ene-3β,7β,17β-triol was administered to the animals oral gavage. The results were analyzed by two-tailed Student's t-test with equal variance. The animals were injected in the right hind footpad with 50 μL of freshly prepared sensitizing dose of TNP-OVA. […] Single cell suspensions were prepared, resuspended in 1 mL PBS-BSA (1%) and counted. Cell numbers, IL-4, IL-5 and IFNγ were measured.

NF-κB = assay: inhibition of NF-κB activation in NF-κB-bla THP-1 cells after LPS stimulation; assay type: cell-based, human; details: Homo sapiens, THP-1; LPS stimulation; 50% of the compound's maximum inhibition; averages; read-out: IC50
Summary of the method: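 THP-1 monocytes stably carrying an NF-κB response element–driven β-lactamase reporter, plated about 24 h before activation with LPS at 0.2 ng/mL. Reporter activity measured by FRET ratiometric detection; values are averages of usually 2-4 runs per compound.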

MG-63 cells = assay: pilot studies of dexamethasone in MG-63 cells; assay type: cell-based; details: Homo sapiens
Source text: The capacity of compounds including 5-androstene-3β,7β,17β-triol, 17α-ethynyl-5-androstene-3β,7β,17β-triol and 4-estrene-3α,17β-diol to reverse adverse effects of glucocorticoids in bone growth was shown in the human MG-63 osteosarcoma cell line. MG-63 cells are osteoblasts, which are cells that mediate bone growth. Theis cell line has been used extensively to study bone biology and to characterize the biological activity of compounds for treatment of bone loss conditions (e.g., B. D. Boyan et al., J. Biol. Chem., 264(20):11879-11886, 1989; L. C. Hofbauer et al., Endocrinology, 140(10):4382-4389, 1999). Adverse toxicities associated with elevated glucocorticoid levels include a decrease in the production of IL-6 and IL-8 by osteoblasts, including the MG-63 cell line, and an increase in the expression of the 11β-hydroxysteroid dehydrogenase type 1 enzyme (11β-HSD). Increased 11β-hydroxysteroid dehydrogenase type 1 enzyme results in increased levels of endogenous glucocorticoid activity by converting endogenous cortisone to the active cortisol, which inhibits bone growth. The 11β-HSD enzyme is expressed in liver, adipose tissue, brain and bone tissues. Cortisol generated by 11β-HSD-1 contributes to osteoporosis, insulin resistance, type 2 diabetes, dyslipidemia, obesity, central nervous system disorders such as stroke, neuron death, depression and Parkinson Disease. […]

[2] = tested on: bone loss after thermal injury; assay: bone loss in thermally-injured mice; assay type: in vivo; details: 20% total body surface area thermal injury
Source text: In bone loss conditions, 5-androstene-3β,7β,17β-triol affected the principal bone structures, i.e., cortical and trabecular layers and the growth plate. […] We observed partial protection against loss of bone mineral content as measured by dual X-ray absorptiometry.

human whole blood = assay: γ-interferon production in human whole blood exposed to LPS; assay type: cell-based; details: 24 hours with LPS; 16α-bromoepiandrosterone at 100 ng/mL
Protocol: Anti-inflammation activity in human cells in vitro. […] The amount of γ-interferon was measured in the growth medium when the cells had been incubated in the presence of LPS for 24 hours.

[3] = tested on: lethal amount of bacterial lipopolysaccharide (LPS); assay: lethal shock protocol; assay type: in vivo, mice; details: second assay; oral gavage 24 h before and 1 h after LPS
Protocol: Treatment of lethal inflammation/shock. Two compounds, 16α-bromoepiandrosterone (3β-hydroxy-16α-bromoandrostane-17-one) and 3β,16α-dihydroxy-17-oxoandrostane, were used in a lethal shock protocol. In one protocol, 3 mg of 16α-bromoepiandrosterone was administered to one group of animals by oral gavage, while another group received 3 mg of 16α-bromoepiandrosterone by subcutaneous injection. A group of control animals received a placebo control. In this protocol, the 16α-bromoepiandrosterone was administered to mice at 24 hours before and at 1 hour after administration of a lethal amount of bacterial lipopolysaccharide (LPS). By the end of the observation period, 72 hours after LPS administration, none of the vehicle treated placebo control animals had survived, while 65% of animals that received 16α-bromoepiandrosterone by oral administration survived. 50% of the animals that received 16α-bromoepiandrosterone by subcutaneous injection survived. Animals that survived for 72 hours all recovered from the LPS exposure.
In a second assay, 16α-bromoepiandrosterone or 3β,16α-dihydroxy-17-oxoandrostane was administered to mice by oral gavage at 24 hours before and 1 hour after administration of a lethal amount of LPS. A vehicle treated group of animals was used as the placebo control.

[4] = metabolic stability in liver microsomes, species not stated; details: compared with androst-5-ene-3β,17β-diol
Protocol: The protocol was performed as follows. […] (2) Set up samples as follows. […] (4) The internal standard/acetonitrile solution.

[5] = tested on: carrageenan-λ induced pleurisy; assay: carrageenan-λ induced lung (pleural cavity) inflammation; assay type: in vivo, CD1 male mice; details: for number of neutrophils relative to negative control group (set at 100%): exudate 4 h after
Source text: Treatment of lung inflammation. Three compounds, 3β,16α-dihydroxy-17-oxoandrostane, 3α,16β,17β-trihydroxyandrostane and 3α,16α,17α-trihydroxyandrostane were used to treat inflammation in mice essentially as described (D. Auci et al., Ann. New York Acad. Sci. 1051:730-742 2005). Five to 8 week old CD1 male mice (Charles River, Calco, Italy) were used for the study. The animals were housed in a controlled environment and provided with standard rodent chow and water. Animal care was in compliance with applicable regulations on protection of animals. Mice were allocated into one of the following groups: (1) mice treated with 2% carrageenan-k in saline (carrageenan-λ treated control group), (2) mice treated with 0.1 mg, 0.01 mg or 0.001 mg 3β,16α-dihydroxy-17-oxoandrostane by subcutaneous (s.c.) injection 24 h and 1 h before carrageenan-λ administration, (3) mice treated with 0.1 mg, 0.01 mg or 0.001 mg of 3α,16α,17α-trihydroxyandrostane by s.c. injection 24 and 1 h before carrageenan; (4) mice treated with 0.1 mg, 0.01 mg or 0.001 mg […],16β,17β-trihydroxyandrostane by s.c. injection 24 h and 1 h before carrageenan-λ administration; (5) mice treated with vehicle (0.1% carboxymethylcellulose, 0.9% saline, 2% tween 80, 0.05% phenol) s.c. 24 h and 1 h before carrageenan-λ administration; (6) mice treated with rabbit anti-mouse polyclonal anti-TNF-α antibody (200 μg) given as an intraperitoneal bolus 24 h and 1 h before carrageenan-λ administration (positive control group); and (7) sham-operated mice that were not treated with carrageenan-λ. Each group consisted of 10 mice. All treatments were given in a final volume of 100 μL. Lung (pleural cavity) inflammation was induced as follows. The mice were anaesthetised with isoflurane and a skin incision was made at the level of the left sixth intercostal space. The underlying muscle was dissected and either 0.1 mL saline (control) or 0.1 mL saline containing 2% λ-carrageenan was injected into the pleural cavity. The carrageenan-λ is a potent inducer of inflammation, which is manifested in this protocol by accumulation of fluid and neutrophils in the pleural cavity. The incision was closed with a suture and the animals were allowed to recover.
At 4 h after the injection of carrageenan-λ, the animals were euthanized by exposure to CO2. The chest was carefully opened and the pleural cavity rinsed with 1 mL of saline solution containing heparin (5 U/mL) and indomethacin (10 μg/mL). The exudate and washing solution were removed by aspiration and the total volume measured. Any exudate contaminated with blood was discarded. The amount of exudate was calculated by subtracting the injected 1 mL volume from the total pleural cavity volume that was recovered. The neutrophils in the exudate were suspended in phosphate-buffer saline and counted with an optical microscope in a Burker's chamber after Trypan Blue staining. The results were analysed by one-way ANOVA followed by a Bonferroni post-hoc test for multiple comparisons. A p-value less than 0.05 was considered significant. For statistical analysis each group was compared to the control group of mice that were challenged with carrageenan-k and received no other treatment.
The table below describes the number of neutrophils from the treated animal groups relative to untreated control animals that were exposed to carrageenan-λ, but not treated with anything else (negative control group). The neutrophil number for the negative control group was set at 100% and other groups were compared to this.

[6] = tested on: human T lymphocytes (PBMC); assay: human mixed lymphocyte reaction (MLR); assay type: cell-based; details: 300 nM or 30 nM
Source text: Human mixed lymphocyte reaction (MLR). The capacity of 3β,16α-dihydroxy-17-oxoandrostane, 3β,17β-dihydroxy-16-oxoandrostane, 17α-ethynylandrost-5-ene-3β,7β,17β-triol, and 17β-aminoandrost-5-ene-3β-ol to affect antigen specific stimulation in which human T lymphocytes respond to a specific foreign antigen (major histocompatibility complex).
Blood samples were obtained from 3 (2 males, […]) fasting, healthy human volunteers of 23-31 years old. […] The subjects were bled between 9 and 10 AM to limit possible fluctuations in the circulating levels of hormones or cytokines that could have influenced the in vitro responses of their lymphocytes. Peripheral blood mononuclear cells (PBMC) were isolated by centrifugation on Ficoll-Hypaque (density 1.077, Biochrom AG, Berlin, Germany) gradients and resuspended in culture medium (RPMI 1640 supplemented with 2 mM L-glutamine, penicillin (100 U/mL) and streptomycin ([…]) (Invitrogen s.rl., Milan, Italy). Autologous (responder) inactivated plasma was used at 10%. Five hundred thousand responder PBMC (PBMCr) and 500,000 allogeneic irradiated (30 Gy) stimulator PBMC (PBMCs) were mixed at a ratio of 1:1 in 200 μL medium and cultured for 6 days in flat bottom 96 well plates (Nunc, Roskilde, Denmark) at a concentration of 300 nM or 30 nM for each of the 4 compounds. The compounds were dissolved in ethanol and then diluted to the desired concentration with culture medium leading to a final solution containing 0.01% of ethanol. This vehicle was used as control. Controls also included PBMCr and PBMCs cultured separately. During the last 8 hours of the culture period the PBMC were pulsed with […] [^3H] thymidine (Amersham, Milan, Italy). The cells were then harvested and radioactivity incorporation measured with a beta cell counter. The mean cpm of quadruplicate wells was calculated. Proliferation of T cells was expressed as a stimulation index: SI=cpm (PMBCs xPBMCr)/cpm (PBMCr)+cpm (PBMCs). Statistical analysis was performed using the Student's t test. The cpm obtained from quadruplicate of each test compound were compared to proliferative responses obtained in control PBMCr and PBMCs cultured in the presence of the vehicle. Differences were considered significant at p<0.05.

## C[C@@H]1C[C@H]2[C@@H]3CCC4=CC(=O)C=C[C@]4(C)[C@@]3(F)[C@@H](O)C[C@]2(C)[C@@]1(O)C(=O)CO [dexamethasone, reference compound]
[1]
  IFNγ, IL-4 and IL-5 levels compared to vehicle control: reduced
NF-κB
  IC50: 0.47 nM
MG-63 cells; read-out: IC50 for inhibition of IL-6 from MG-63 cells
  IC50: 10 nM
MG-63 cells; read-out: IC50 for inhibition of growth of MG-63 cells
  IC50: 15.3 nM

## C[C@]12CC[C@H]3[C@@H]([C@@H](O)C=C4C[C@@H](O)CC[C@@]43C)[C@@H]1CC[C@@H]2O [androst-5-ene-3β,7β,17β-triol]
[2]
  femur ash weight vs vehicle-treated burned mice: significantly (p<0.01) greater
  loss of cortical and trabecular bone mass and suppression of chondrocyte proliferation: significantly (p<0.01) prevented

## C[C@]12CC[C@H](O)CC1CC[C@@H]1[C@@H]2CC[C@]2(C)C(=O)[C@H](O)C[C@@H]12 (stereo partly drawn) [3β,16α-dihydroxy-17-oxoandrostane]
Human whole blood
  production of γ-interferon: Reduced production
[3]
  survival 72 hours after LPS: 50%
[4]
  rate of metabolism by microsomes: metabolized by microsomes at a rate similar to the androst-5-ene-3β,17β-diol reference compound
[5]; 0.001 mg s.c. 24 h and 1 h before carrageenan-λ
  number of neutrophils relative to negative control group (set at 100%): 97%
[5]; 0.01 mg s.c. 24 h and 1 h before carrageenan-λ
  number of neutrophils relative to negative control group (set at 100%): 73%
[5]; 0.1 mg dose s.c.
  volume of pleural exudate: significantly reduced
[5]; 0.1 mg s.c. 24 h and 1 h before carrageenan-λ
  number of neutrophils relative to negative control group (set at 100%): 73%
[5]; s.c.
  potency compared with polyclonal anti-TNF-α antibody control: less potent
[6]
  immune suppression (inhibition of the MLR): not appreciably immune suppressive
